Tested on: spinal cord transcriptome
Assay: RNA-Seq of spinal cord tissue from 2B/- and 2B/+ mice
Type: in vivo, mouse
[1] = spinal cord, 2B/- RG3039 vs 2B/- vehicle, adjusted p-value 2.55E-55

Nc1nc(N)c2c(OCC3CCN(Cc4c(Cl)cccc4Cl)CC3)cccc2n1 [RG3039]
log2(fold-change) (2B-Veh vs 2B-RG3039, gene Osbpl3): 0.3051 | log2(fold-change) (2B-Veh vs 2B-RG3039, gene Phf13): 0.2527 | log2(fold-change) (2B-Veh vs 2B-RG3039, gene Pigz): -0.3408 | log2(fold-change) (2B-Veh vs 2B-RG3039, gene Pik3r1): -0.2417 | log2(fold-change) (2B-Veh vs 2B-RG3039, gene Plcb1): -0.2064 | log2(fold-change) (2B-Veh vs 2B-RG3039, gene Pld2): 0.3673 | log2(fold-change) (2B-Veh vs 2B-RG3039, gene Prr18): -0.2462 | log2(fold-change) (2B-Veh vs 2B-RG3039, gene Ptbp1): 0.3576 | log2(fold-change) (2B-Veh vs 2B-RG3039, gene Ptpdc1): -0.3585 | log2(fold-change) (2B-Veh vs 2B-RG3039, gene Pvrl3): 0.3266 | log2(fold-change) (2B-Veh vs 2B-RG3039, gene Rab31): -0.2849 | log2(fold-change) (2B-Veh vs 2B-RG3039, gene Ralb): 0.1805 | log2(fold-change) (2B-Veh vs 2B-RG3039, gene Rapgef3): -0.3391 | log2(fold-change) (2B-Veh vs 2B-RG3039, gene Rasal1): -0.2345 | log2(fold-change) (2B-Veh vs 2B-RG3039, gene Rgs19): 0.2532 | log2(fold-change) (2B-Veh vs 2B-RG3039, gene Serpina3n): -0.2457 | log2(fold-change) (2B-Veh vs 2B-RG3039, gene Sh3pxd2a): 0.3024 | log2(fold-change) (2B-Veh vs 2B-RG3039, gene Slc39a11): 0.2556 | log2(fold-change) (2B-Veh vs 2B-RG3039, gene Sox13): 0.3712 | log2(fold-change) (2B-Veh vs 2B-RG3039, gene Spon1): -0.207 | log2(fold-change) (2B-Veh vs 2B-RG3039, gene Srsf9): 0.255 | log2(fold-change) (2B-Veh vs 2B-RG3039, gene Stxbp3a): -0.2437 | log2(fold-change) (2B-Veh vs 2B-RG3039, gene Swap70): 0.2496 | log2(fold-change) (2B-Veh vs 2B-RG3039, gene Tfrc): 0.316 | log2(fold-change) (2B-Veh vs 2B-RG3039, gene Tlcd1): 0.158 | log2(fold-change) (2B-Veh vs 2B-RG3039, gene Tmod1): -0.2447 | log2(fold-change) (2B-Veh vs 2B-RG3039, gene Tubb2b): 0.2818 | log2(fold-change) (2B-Veh vs 2B-RG3039, gene Vgf): 0.2475 | log2(fold-change) (2B-Veh vs 2B-RG3039, gene Vps37b): 0.2543 | log2(fold-change) (2B-Veh vs 2B-RG3039, gene Wbscr27): -0.2613 | log2(fold-change) (2B-Veh vs 2B-RG3039, gene Wnt7b): 0.3209 | log2(fold-change) (2B-Veh vs 2B-RG3039, gene Zfp276): -0.2722 | log2(fold-change) (2B-Veh vs 2B-RG3039, gene Zfp692): -0.2503 | log2(fold-change) (2B-Veh vs 2B-RG3039, gene Zfp839): -0.2535 | log2(fold-change) (2B-Veh vs 2B-RG3039, gene Zhx3): -0.2128 | log2(fold-change) (2B-Veh vs 2B-RG3039, gene Zmat1): -0.3673 | log2(fold-change) (mouse, in vivo): 0.2853 | log2(fold-change) Chodl transcript (spinal cord RNA-Seq, 2B- RG vs. 2B+ Veh (sheet WT-Veh_vs_2B-859_all), adjusted p-value 1.03E-56): -2.122 | log2(fold-change) 4632404H12Rik transcript (spinal cord RNA-Seq, 2B- RG vs. 2B+ Veh (sheet WT-Veh_vs_2B-859_all), adjusted p-value 1.30E-36): 1.504 | log2(fold-change) Spp1 transcript (spinal cord RNA-Seq, 2B- RG vs. 2B+ Veh (sheet WT-Veh_vs_2B-859_all), adjusted p-value 1.87E-42): -1.107 | log2(fold-change) Gm26924 transcript (spinal cord RNA-Seq, 2B- RG vs. 2B+ Veh (sheet WT-Veh_vs_2B-859_all), adjusted p-value 5.93E-43): -1.355 | log2(fold-change) Ahnak2 transcript (spinal cord RNA-Seq, 2B- RG vs. 2B+ Veh (sheet WT-Veh_vs_2B-859_all), adjusted p-value 8.66E-40): -1.26 | log2(fold-change) Tgtp1 transcript (spinal cord RNA-Seq, RG3039 2B/- vs. vehicle 2B/-, adjusted p-value 0.000273937): 1.848 | log2(fold-change) Cfd transcript (spinal cord RNA-Seq, RG3039 2B/- vs. vehicle 2B/-, adjusted p-value 0.000300401): -2.755 | log2(fold-change) Kcnb2 transcript (spinal cord RNA-Seq, RG3039 2B/- vs. vehicle 2B/-, adjusted p-value 0.000330855): 1.602 | log2(fold-change) Fabp4 transcript (spinal cord RNA-Seq, RG3039 2B/- vs. vehicle 2B/-, adjusted p-value 0.000349974): -2.327 | log2(fold-change) Reg3b transcript (spinal cord RNA-Seq, RG3039 2B/- vs. vehicle 2B/-, adjusted p-value 0.00104281): 1.9386 | log2(fold-change) Saa3 transcript (spinal cord RNA-Seq, RG3039 2B/- vs. vehicle 2B/-, adjusted p-value 0.0020931): -2.03 | log2(fold-change) Tgtp2 transcript (spinal cord RNA-Seq, RG3039 2B/- vs. vehicle 2B/-, adjusted p-value 0.00223451): 1.688 | log2(fold-change) Slfn10-ps transcript (spinal cord RNA-Seq, RG3039 2B/- vs. vehicle 2B/-, adjusted p-value 0.00233365): 1.807 | log2(fold-change) Gm10629 transcript (spinal cord RNA-Seq, RG3039 2B/- vs. vehicle 2B/-, adjusted p-value 0.00341009): 1.585 | log2(fold-change) Myh4 transcript (spinal cord RNA-Seq, RG3039 2B/- vs. vehicle 2B/-, adjusted p-value 0.0039906): -2.1375 | log2(fold-change) Amtn transcript (spinal cord RNA-Seq, RG3039 2B/- vs. vehicle 2B/-, adjusted p-value 0.00445577): 1.585 | log2(fold-change) Gm21807 transcript (spinal cord RNA-Seq, RG3039 2B/- vs. vehicle 2B/-, adjusted p-value 0.00737848): 1.663 | log2(fold-change) Ak3l2-ps transcript (spinal cord RNA-Seq, RG3039 2B/- vs. vehicle 2B/-, adjusted p-value 0.0076012): 1.688 | log2(fold-change) Gm25014 transcript (spinal cord RNA-Seq, RG3039 2B/- vs. vehicle 2B/-, adjusted p-value 0.00761921): 1.585 | log2(fold-change) Mrgprd transcript (spinal cord RNA-Seq, RG3039 2B/- vs. vehicle 2B/-, adjusted p-value 0.0177741): 1.807 | log2(fold-change) Ucp1 transcript (spinal cord RNA-Seq, RG3039 2B/- vs. vehicle 2B/-, adjusted p-value 0.0259172): -1.858 | log2(fold-change) Scn10a transcript (spinal cord RNA-Seq, RG3039 2B/- vs. vehicle 2B/-, adjusted p-value 0.0498434): 1.7 | log2(fold-change) 4930481A15Rik transcript (spinal cord RNA-Seq, RG3039 2B/- vs. vehicle 2B/-, adjusted p-value 1.16E-05): -2.273 | log2(fold-change) Gm13558 transcript (spinal cord RNA-Seq, RG3039 2B/- vs. vehicle 2B/-, adjusted p-value 1.21E-05): -2 | log2(fold-change) Itga2 transcript (spinal cord RNA-Seq, RG3039 2B/- vs. vehicle 2B/-, adjusted p-value 1.25E-05): 1.883 | log2(fold-change) Ifi44 transcript (spinal cord RNA-Seq, RG3039 2B/- vs. vehicle 2B/-, adjusted p-value 1.41E-22): 2.678 | log2(fold-change) Etnppl transcript (spinal cord RNA-Seq, RG3039 2B/- vs. vehicle 2B/-, adjusted p-value 2.00E-23): -2.764 | log2(fold-change) Ada transcript (spinal cord RNA-Seq, RG3039 2B/- vs. vehicle 2B/-, adjusted p-value 2.62E-17): -2.097 | log2(fold-change) Sgk1 transcript (spinal cord RNA-Seq, RG3039 2B/- vs. vehicle 2B/-, adjusted p-value 2.77E-28): -1.812 | log2(fold-change) Dpep1 transcript (spinal cord RNA-Seq, RG3039 2B/- vs. vehicle 2B/-, adjusted p-value 3.30E-07): -2.385 | log2(fold-change) Tmem52 transcript (spinal cord RNA-Seq, RG3039 2B/- vs. vehicle 2B/-, adjusted p-value 3.37E-32): -2.209 | log2(fold-change) A830073O21Rik transcript (spinal cord RNA-Seq, RG3039 2B/- vs. vehicle 2B/-, adjusted p-value 3.74E-09): 1.69 | log2(fold-change) Usp18 transcript (spinal cord RNA-Seq, RG3039 2B/- vs. vehicle 2B/-, adjusted p-value 4.16E-13): 1.709 | log2(fold-change) Slc10a6 transcript (spinal cord RNA-Seq, RG3039 2B/- vs. vehicle 2B/-, adjusted p-value 4.39E-06): -2.443 | log2(fold-change) Oas1a transcript (spinal cord RNA-Seq, RG3039 2B/- vs. vehicle 2B/-, adjusted p-value 4.66E-07): 1.712 | log2(fold-change) Plin4 transcript (spinal cord RNA-Seq, RG3039 2B/- vs. vehicle 2B/-, adjusted p-value 4.90E-27): -3.356 | log2(fold-change) Map3k6 transcript (spinal cord RNA-Seq, RG3039 2B/- vs. vehicle 2B/-, adjusted p-value 5.02E-31): -2.942 | log2(fold-change) 8430408G22Rik transcript (spinal cord RNA-Seq, RG3039 2B/- vs. vehicle 2B/-, adjusted p-value 5.30E-09): -1.92 | log2(fold-change) Fmo2 transcript (spinal cord RNA-Seq, RG3039 2B/- vs. vehicle 2B/-, adjusted p-value 6.18E-07): -2.118 | log2(fold-change) Tmem82 transcript (spinal cord RNA-Seq, RG3039 2B/- vs. vehicle 2B/-, adjusted p-value 7.17E-13): -2.075 | log2(fold-change) Sds transcript (spinal cord RNA-Seq, RG3039 2B/- vs. vehicle 2B/-, adjusted p-value 7.23E-13): -2.356 | log2(fold-change) Gp2 transcript (spinal cord RNA-Seq, RG3039 2B/- vs. vehicle 2B/-, adjusted p-value 7.46E-06): 1.536 | log2(fold-change) Gm11827 transcript (spinal cord RNA-Seq, RG3039 2B/- vs. vehicle 2B/-, adjusted p-value 7.82E-08): -2.193 | log2(fold-change) Chml transcript (spinal cord RNA-Seq, RG3039 2B/- vs. vehicle 2B/-, adjusted p-value 8.74E-18): 1.585 | log2(fold-change) Gm15622 transcript (spinal cord RNA-Seq, RG3039 2B/- vs. vehicle 2B/-, adjusted p-value 9.01E-05): 2.027 | share of detectable genes modulated (spinal cord, 2B/+ control mice): less than 0.5% | log2(fold-change), gene Mt1 (spinal cord, 2B/- RG3039 vs 2B/- vehicle, adjusted p-value 1.29E-57): -1.302 | log2(fold-change), gene Polr3e (spinal cord, 2B/- RG3039 vs 2B/- vehicle, adjusted p-value 1.67E-54): -1.443 | log2(fold-change), gene Fam107a [1]: -1.657 | log2(fold-change), gene Fkbp5 [1]: -1.583 | log2(fold-change), gene Mt2 (spinal cord, 2B/- RG3039 vs 2B/- vehicle, adjusted p-value 2.67E-76): -1.696 | Smn transcripts as detected by RNA-Seq (spinal cord, 2B/- SMA mice): did not appear to increase Smn transcripts | share of the measurable genes with altered expression (spinal cord, 2B/- SMA mice RG3039 vs vehicle): approximately 26.8% | genes with significantly (P < 0.05) altered expression (spinal cord, 2B/- SMA mice RG3039 vs vehicle-treated 2B/-): 5,497 genes | genes affected in opposite directions by disease and by compound treatment (spinal cord, 2B/- mice): 591 genes | ZPR1 expression in whole spinal cord by RNA-seq (vehicle vs RG3039 treated SMA mice): no difference in ZPR1 expression

Source: publication PMC5612656, “In vitro and in vivo effects of 2,4 diaminoquinazoline inhibitors of the decapping scavenger enzyme DcpS: Context-specific modulation of SMN transcript levels” (PLoS ONE, 2017)
